From patent US12162864B2, “Condensed-cyclic compound” (Takeda Pharmaceutical Company Limited, priority 2018, dated 2024)

What follows are molecules tested against T1, human M1 receptor (Homo sapiens, UniProt P11229) (assay: Measurement of M1 receptor positive allosteric modulator (M1PAM) activity). Conditions: PAM activity in presence of acetylcholine at EC20 concentration; CHO-K1 cells stably expressing human M1 receptor; IP1 time-resolved fluorescence.
T1 construct: expressed in transfected cells; host or cells: CHO-K1
T1 sequence (P11229 1-460): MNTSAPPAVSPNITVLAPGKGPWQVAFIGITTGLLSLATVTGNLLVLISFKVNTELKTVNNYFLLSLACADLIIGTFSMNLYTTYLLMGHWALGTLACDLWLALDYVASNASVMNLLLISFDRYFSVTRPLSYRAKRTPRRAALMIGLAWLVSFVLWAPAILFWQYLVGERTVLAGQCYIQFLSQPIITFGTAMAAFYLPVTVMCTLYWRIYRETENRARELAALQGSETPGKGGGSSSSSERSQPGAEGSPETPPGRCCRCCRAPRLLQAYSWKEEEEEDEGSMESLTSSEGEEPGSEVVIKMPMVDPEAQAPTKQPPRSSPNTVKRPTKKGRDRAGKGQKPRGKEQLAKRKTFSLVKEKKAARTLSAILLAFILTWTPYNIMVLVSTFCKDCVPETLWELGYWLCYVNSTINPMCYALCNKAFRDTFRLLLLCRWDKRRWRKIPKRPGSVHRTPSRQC
Type: cell-based
Description: Measurement of M1 Receptor Positive Allosteric Modulator (M1PAM) Activity
The activity of a test compound in the presence of acetylcholine at an EC20 concentration affording about 20% action of the maximum activity was measured as PAM activity. The method therefor is as follows. To a 384-well white plate (Greiner™) was added 4 μL of the test compound diluted with IP1 Stimulation buffer (CisBio™) containing 0.1% fatty acid-free BSA containing 80 nM acetylcholine. Freeze stock of CHO-K1 cells stably expressing human M1 receptor (hCHRMl) was prepared with IP1 Stimulation buffer (CisBio™) containing 0.1% fatty acid-free BSA, 4 μL thereof was added (10,000 cells/well) and the mixture was cultured in a 5% CO2 incubator at 37° C. for 1 hr. 4 μL of a solution (CisBio™) containing IP1-d2 and Anti-IP1-cryptate Tb conjugate was added the mixture was incubated at room temperature for 1 hr, and the time-resolved fluorescence signal was measured on an Envision plate reader (Perkin Elmer™). The activity (%) of the test compound was calculated by defining the value when acetylcholine was added at the final concentration of 20 μM as 100% and the value when DMSO was added instead of the test compound under acetylcholine-free conditions as 0%, and the EC50 value was calculated as a value of 50% of the concentration dependence curve of the test compound.
`Cn1cc(-c2ccc(Cc3cc(C(=O)N[C@H]4CCOC[C@@H]4O)c(F)c4c3OCC4)cc2)nn1` [Example 1, 1,5-anhydro-2,3-dideoxy-3-(((4-fluoro-7-(4-(1-methyl-1H-1,2,3-triazol-4-yl)benzyl)-2,3-dihydro-1-benzofuran-5-yl)carbonyl)amino)-L-threo-pentitol] showed an EC50 of 3.1 nM. Work on `Cn1cc(-c2ccc(Cc3cc(C(=O)N[C@H]4CCOC[C@@H]4O)c(F)c4c3OCC4)cc2)cn1` [Example 2, 1,5-anhydro-2,3-dideoxy-3-(((4-fluoro-7-(4-(1-methyl-1H-pyrazol-4-yl)benzyl)-2,3-dihydro-1-benzofuran-5-yl)carbonyl)amino)-L-threo-pentitol] yielded an EC50 of 4.9 nM. `O=C(N[C@H]1CCOC[C@@H]1O)c1cc(Cc2ccc(-n3cccn3)cc2)c2c(c1F)CCO2` [Example 9, 1,5-anhydro-2,3-dideoxy-3-(((4-fluoro-7-(4-(1H-pyrazol-1-yl)benzyl)-2,3-dihydro-1-benzofuran-5-yl)carbonyl)amino)-L-threo-pentitol] showed an EC50 of 7.6 nM. `O=C(N[C@H]1CCCC[C@@H]1O)c1cc(Cc2ccc(-n3cccn3)cc2)c2c(c1F)CCO2` [Example 10, 4-fluoro-N-((1S,2S)-2-hydroxycyclohexyl)-7-(4-(1H-pyrazol-1-yl)benzyl)-2,3-dihydro-1-benzofuran-5-carboxamide] showed an EC50 of 17 nM. `O=C(N[C@H]1COCC[C@@H]1O)c1cc(Cc2ccc(-n3cccn3)cc2)c2c(c1F)CCO2` [Example 11, 1,5-anhydro-2,4-dideoxy-2-(((4-fluoro-7-(4-(1H-pyrazol-1-yl)benzyl)-2,3-dihydro-1-benzofuran-5-yl)carbonyl)amino)-L-threo-pentitol] was tested, and the EC50 was 96 nM. In the case of `CNC(=O)c1ccc(Cc2cc(C(=O)N[C@H]3CCOC[C@@H]3O)c(F)c3c2OCC3)cc1F` [Example 12, 1,5-anhydro-2,3-dideoxy-3-(((4-fluoro-7-(3-fluoro-4-(methylcarbamoyl)benzyl)-2,3-dihydro-1-benzofuran-5-yl)carbonyl)amino)-L-threo-pentitol], the EC50 is reported as 11 nM. `O=C(NC[C@@H]1CCCO1)c1ccc(Cc2cc(C(=O)N[C@H]3CCOC[C@@H]3O)c(F)c3c2OCC3)cc1F` [Example 15, 1,5-anhydro-2,3-dideoxy-3-(((4-fluoro-7-(3-fluoro-4-(((2S)-tetrahydrofuran-2-ylmethyl)carbamoyl)benzyl)-2,3-dihydro-1-benzofuran-5-yl)carbonyl)amino)-L-threo-pentitol] gave an EC50 of 4.9 nM. With `COc1c(C(=O)N[C@H]2CCOC[C@@H]2O)cc(Cc2ccc(-c3cn(C)nn3)cc2)c2c1CCO2` [Example 18, 1,5-anhydro-2,3-dideoxy-3-(((4-methoxy-7-(4-(1-methyl-1H-1,2,3-triazol-4-yl)benzyl)-2,3-dihydro-1-benzofuran-5-yl)carbonyl)amino)-L-threo-pentitol] the EC50 was 6 nM. With `Cn1cc(-c2ccc(Cc3cc(C(=O)N[C@H]4CCOC[C@@H]4O)c(O)c4c3OCC4)cc2)nn1` [Example 20, 1,5-anhydro-2,3-dideoxy-3-(((4-hydroxy-7-(4-(1-methyl-1H-1,2,3-triazol-4-yl)benzyl)-2,3-dihydro-1-benzofuran-5-yl)carbonyl)amino)-L-threo-pentitol] the EC50 was 43 nM. `COCCNC(=O)c1ccc(Cc2cc(C(=O)N[C@H]3CCOC[C@@H]3O)c(OC)c3c2OCC3)cc1F` [Example 32, 1,5-anhydro-2,3-dideoxy-3-(((7-(3-fluoro-4-((2-methoxyethyl)carbamoyl)benzyl)-4-methoxy-2,3-dihydro-1-benzofuran-5-yl)carbonyl)amino)-L-threo-pentitol] was tested, and the EC50 was 24 nM. With `COc1c(C(=O)N[C@H]2CCOC[C@@H]2O)cc(Cc2ccc(C(=O)NC[C@@H]3CCCO3)c(F)c2)c2c1CCO2` [Example 33, 1,5-anhydro-2,3-dideoxy-3-(((7-(3-fluoro-4-(((2S)-tetrahydrofuran-2-ylmethyl)carbamoyl)benzyl)-4-methoxy-2,3-dihydro-1-benzofuran-5-yl)carbonyl)amino)-L-threo-pentitol] the EC50 was 11 nM. Work on `COc1c(C(=O)N[C@H]2CCOC[C@@H]2O)cc(Cc2ccc(C(=O)NC[C@H]3CCCO3)c(F)c2)c2c1CCO2` [Example 43, 1,5-anhydro-2,3-dideoxy-3-(((7-(3-fluoro-4-(((2R)-tetrahydrofuran-2-ylmethyl)carbamoyl)benzyl)-4-methoxy-2,3-dihydro-1-benzofuran-5-yl)carbonyl)amino)-L-threo-pentitol] yielded an EC50 of 96 nM. In the case of `COc1c(C(=O)N[C@H]2CCOC[C@@H]2O)cc(Cc2ccc(-c3cn(C)nn3)cc2)c2c1CCC2` [Example 53, 1,5-anhydro-2,3-dideoxy-3-(((4-methoxy-7-(4-(1-methyl-1H-1,2,3-triazol-4-yl)benzyl)-2,3-dihydro-1H-inden-5-yl)carbonyl)amino)-L-threo-pentitol], the EC50 is reported as 3.2 nM. Molecule `COc1c(C(=O)N[C@H]2CCOC[C@@H]2O)cc(Cc2ccc(-c3cnn(C)c3)nc2)c2c1CCC2` [Example 55, 1,5-anhydro-2,3-dideoxy-3-(((4-methoxy-7-((6-(1-methyl-1H-pyrazol-4-yl)pyridin-3-yl)methyl)-2,3-dihydro-1H-inden-5-yl)carbonyl)amino)-L-threo-pentitol] has an EC50 of 5.5 nM. `CNC(=O)c1ccc(Cc2cc(C(=O)N[C@H]3CCOC[C@@H]3O)c(OC)c3c2CCC3)cc1F` [Example 57, 1,5-anhydro-2,3-dideoxy-3-(((7-(3-fluoro-4-(methylcarbamoyl)benzyl)-4-methoxy-2,3-dihydro-1H-inden-5-yl)carbonyl)amino)-L-threo-pentitol] showed an EC50 of 8.9 nM. With `COCCNC(=O)c1ccc(Cc2cc(C(=O)N[C@H]3CCOC[C@@H]3O)c(OC)c3c2CCC3)cc1F` [Example 58, 1,5-anhydro-2,3-dideoxy-3-(((7-(3-fluoro-4-((2-methoxyethyl)carbamoyl)benzyl)-4-methoxy-2,3-dihydro-1H-inden-5-yl)carbonyl)amino)-L-threo-pentitol] the EC50 was 9.4 nM. `COc1c(C(=O)N[C@H]2CCOC[C@@H]2O)cc(Cc2ccc(C(=O)NC[C@@H]3CCCO3)c(F)c2)c2c1CCC2` [Example 59, 1,5-anhydro-2,3-dideoxy-3-(((7-(3-fluoro-4-(((2S)-tetrahydrofuran-2-ylmethyl)carbamoyl)benzyl)-4-methoxy-2,3-dihydro-1H-inden-5-yl)carbonyl)amino)-L-threo-pentitol] gave an EC50 of 3.9 nM. `COc1c(C(=O)N[C@H]2CCOC[C@@H]2O)cc(Cc2ccc(C(=O)NCCCS(C)(=O)=O)c(F)c2)c2c1CCC2` [Example 66, 1,5-anhydro-2,3-dideoxy-3-(((7-(3-fluoro-4-((3-(methylsulfonyl)propyl)carbamoyl)benzyl)-4-methoxy-2,3-dihydro-1H-inden-5-yl)carbonyl)amino)-L-threo-pentitol] gave an EC50 of 12 nM. With `COc1c(C(=O)N[C@H]2CCOC[C@@H]2O)cc(Cc2ccc(C(=O)NC[C@H]3CCCO3)c(F)c2)c2c1CCC2` [Example 70, 1,5-anhydro-2,3-dideoxy-3-(((7-(3-fluoro-4-(((2R)-tetrahydrofuran-2-ylmethyl)carbamoyl)benzyl)-4-methoxy-2,3-dihydro-1H-inden-5-yl)carbonyl)amino)-L-threo-pentitol] the EC50 was 32 nM.
